In assay [1] the target is T1, HCV NS3/4A protease complex, BMS strain (UniProt P27958, species not given/STRAIN_BMS).
T1 construct: given for H77 and J4L6S, not expressly for BMS; fused on or other part: three-lysine solubilising tail at the end of NS4A (given for the H77 and J4L6S constructs)
Briefly: FRET peptide assay to monitor HCV NS3/4A proteolytic activity (BMS strain). The assay is classed as biochemical, HCV genotype 1a. The source says:
HCV NS3 protease complexes, derived from the BMS strain, H77 strain or J4L6S strain, were generated, as described below. These purified recombinant proteins were generated for use in a homogeneous assay (see below) to provide an indication of how effective compounds of the present disclosure would be in inhibiting HCV NS3 proteolytic activity.
Serum from an HCV-infected patient was obtained from Dr. T. Wright, San Francisco Hospital. An engineered full-length cDNA (compliment deoxyribonucleic acid) template of the HCV genome (BMS strain) was constructed from DNA fragments obtained by reverse transcription-PCR(RT-PCR) of serum RNA (ribonucleic acid) and using primers selected on the basis of homology between other genotype 1a strains. From the determination of the entire genome sequence, a genotype 1a was assigned to the HCV isolate according to the classification of Simmonds et al. (See P Simmonds, K A Rose, S Graham, S W Chan, F McOmish, B C Dow, E A Follett, P L Yap and H Marsden, J. Clin. Microbiol., 31(6), 1493-1503 (1993)). […] The infectious clones, H77 (1a genotype) and J4L6S (1b genotype) were obtained from R. Purcell (NIH) and the sequences are published in Genbank (AAB67036, see Yanagi, M., Purcell, R. H., Emerson, S. U. and Bukh, J. Proc. Natl. Acad. Sci. U.S.A. 94(16), 8738-8743 (1997); AF054247, see Yanagi, M., St Claire, M., Shapiro, M., Emerson, S. U., Purcell, R. H. and Bukh, J, Virology 244 (1), 161-172. (1998)).
NS3/4A protease complex-containing fractions were pooled and loaded on a desalting column Superdex-S200 pre-equilibrated with buffer D (25 mM HEPES, pH 7.5, 20% glycerol, 300 mM NaCl, 0.2% Triton X-100, 10 mM βME). Sample was loaded at a flow rate of 1 mL/min. NS3/4A protease complex-containing fractions were pooled and concentrated to approximately 0.5 mg/ml. The purity of the NS3/4A protease complexes, derived from the BMS, H77 and J4L6S strains, were judged to be greater than 90% by SDS-PAGE and mass spectrometry analyses. The enzyme was stored at −80° C., thawed on ice and diluted prior to use in assay buffer.
The purpose of this in vitro assay was to measure the inhibition of HCV NS3 protease complexes, derived from the BMS strain, H77 strain or J4L6S strain, as described above, by compounds of the present disclosure. This assay provides an indication of how effective compounds of the present disclosure would be in inhibiting HCV NS3 proteolytic activity.
In order to monitor HCV NS3/4A protease activity, an NS3/4A peptide substrate was used. The substrate was RET S1 (Resonance Energy Transfer Depsipeptide Substrate; AnaSpec, Inc. cat #22991)(FRET peptide), described by Taliani et al. in Anal. Biochem. 240(2):60-67 (1996). The sequence of this peptide is loosely based on the NS4A/NS4B natural cleavage site for the HCV NS3 protease except there is an ester linkage rather than an amide bond at the cleavage site. The peptide also contains a fluorescence donor, EDANS, near one end of the peptide and an acceptor, DABCYL, near the other end. The fluorescence of the peptide is quenched by […] resonance energy transfer (RET) between the donor and the acceptor, but as the NS3 protease cleaves the peptide the products are released from RET quenching and the fluorescence of the donor becomes apparent.
The peptide substrate was incubated with one of the three recombinant NS3/4A protease complexes, in the absence or presence of a compound of the present disclosure. The inhibitory effects of a compound were determined by monitoring the formation of fluorescent reaction product in real time using a Cytofluor Series 4000.
Assay buffer: 50 mM HEPES, pH 7.5; 0.15 M NaCl; 0.1% Triton; 15% Glycerol; 10 mM βME. Substrate: 2 μM final concentration (from a 2 mM stock solution in DMSO stored at −20° C.). HCV NS3/4A protease type 1a (1b), 2-3 nM final concentration (from a 5 μM stock solution in 25 mM HEPES, pH 7.5, 20% glycerol, 300 mM NaCl, 0.2% Triton-X100, 10 mM βME). […]

Assay [2] deals with T2, porcine pancreatic elastase (PPE) (Sus scrofa, UniProt P00772).
T2 construct: purchased Sigma
Nature of the assay: Specificity assay, porcine pancreatic elastase. The assay is classed as biochemical. To be noted: 2 h enzyme-inhibitor pre-incubation. How it is done: (§1) The specificities of compounds of the present disclosure were determined against a variety of serine proteases: human neutrophil elastase (HNE), porcine pancreatic elastase (PPE) and human pancreatic chymotrypsin and one cysteine protease: human liver cathepsin B. In all cases a 96-well plate format protocol using colorimetric p-nitroaniline (pNA) substrate specific for each enzyme was used as described previously (PCT Patent Application No. WO 00/09543) with some modifications to the serine protease assays. All enzymes were purchased from Sigma while the substrates were from Bachem.
(§2) Each assay included a 2 h enzyme-inhibitor pre-incubation at room temperature followed by addition of substrate and hydrolysis to ˜30% conversion as measured on a Spectramax Pro microplate reader. Compound concentrations varied from 100 to 0.4 μM depending on their potency.
(§3) 50 mM Tris(hydroxymethyl)aminomethane hydrochloride (Tris-HCl) pH 8, 0.5 M Sodium Sulfate (Na2SO4), 50 mM NaCl, 0.1 mM EDTA, 3% DMSO, 0.01% Tween-20 with:
(§4) 133 μM succ-AAA-pNA and 20 nM HNE or 8 nM PPE; 100 μM succ-AAPF-pNA and […] Chymotrypsin.
(§5) The percentage of inhibition was calculated using the formula: [1−((UVinh−UVblank)/(UVctl−UVblank))]×100
(§6) A non-linear curve fit was applied to the inhibition-concentration data, and the 50% effective concentration (IC50) was calculated by the use of Excel Xl-fit software.

Assay [3] concerns HCV replicon (Renilla luciferase reporter) in HUH-7 cells. Nature of the assay: HCV replicon luciferase reporter assay. The assay is classed as cell-based, HCV strain 1b. To be noted: Huh-7, 96 h, 4 days.
In assay [4] the test system is human pancreatic chymotrypsin. Briefly: Specificity assay, chymotrypsin. Type of assay: biochemical. To be noted: 2 h enzyme-inhibitor pre-incubation. How it is done: as §1, §2, §3, §4, §5, §6

Like-named read-outs stand apart in the source and are kept apart here. Some results are limits rather than exact numbers.

T1 sequence (P27958 1027-1657, change not shown, one chain of several): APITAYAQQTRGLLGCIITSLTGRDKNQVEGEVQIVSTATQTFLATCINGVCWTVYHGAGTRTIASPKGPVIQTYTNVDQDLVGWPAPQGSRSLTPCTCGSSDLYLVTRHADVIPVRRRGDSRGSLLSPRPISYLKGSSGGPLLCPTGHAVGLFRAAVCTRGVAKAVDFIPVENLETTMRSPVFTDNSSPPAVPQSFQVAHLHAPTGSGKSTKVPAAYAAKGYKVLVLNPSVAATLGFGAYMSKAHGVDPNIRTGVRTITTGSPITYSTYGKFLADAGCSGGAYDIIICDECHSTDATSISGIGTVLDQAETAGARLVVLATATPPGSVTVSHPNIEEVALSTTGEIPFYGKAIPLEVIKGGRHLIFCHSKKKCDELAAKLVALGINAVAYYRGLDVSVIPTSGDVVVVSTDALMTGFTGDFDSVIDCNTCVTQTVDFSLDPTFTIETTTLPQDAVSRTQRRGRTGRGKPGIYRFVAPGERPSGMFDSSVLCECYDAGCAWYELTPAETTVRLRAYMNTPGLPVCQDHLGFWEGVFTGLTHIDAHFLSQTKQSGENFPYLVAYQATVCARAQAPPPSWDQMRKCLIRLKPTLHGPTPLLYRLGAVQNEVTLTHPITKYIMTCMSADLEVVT
T2 sequence (P00772 27-266): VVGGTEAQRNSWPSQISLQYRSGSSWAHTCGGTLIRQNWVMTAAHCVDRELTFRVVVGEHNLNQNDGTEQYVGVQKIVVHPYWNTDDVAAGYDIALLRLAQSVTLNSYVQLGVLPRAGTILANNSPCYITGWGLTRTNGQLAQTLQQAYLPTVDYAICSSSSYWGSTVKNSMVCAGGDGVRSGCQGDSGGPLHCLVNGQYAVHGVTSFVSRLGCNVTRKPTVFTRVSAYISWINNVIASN

For `C=C[C@@H]1C[C@]1(NC(=O)[C@@H]1C[C@@H](OC(=O)c2ccccc2)CN1C(=O)[C@@H](NC(=O)OC(C)(C)C)C(C)(C)C)C(=O)NS(=O)(=O)C1CC1` [Compound 1], the IC50 is 1 to 50 nM in assay [1] (read-out: Activity Range (IC50), NS3/4A BMS strain); 13 nM in assay [1] (read-out: IC50 against the NS3/4A BMS strain in the enzyme assay, BMS strain); > 200000 nM in assay [2]; > 200000 nM in assay [4]. In assay [3], this molecule gave an EC50 of 51 nM.
